Measurements taken from patent EP2680005A1, “Lipid analysis” (Rheinische Friedrich-Wilhelms-Universität Bonn, priority 2012, dated 2014).
Read-outs that look alike come from different tables or passages of the source.

How the values were obtained:
[1] = tested on: Drosophila melanogaster L3 larvae; assay: Alkyne fatty acid labeling of opened single L3 larvae; conditions: 50 µM, 30 min
Procedure: (§1) Alkyne lipid precursors are supplemented to cell culture where they become incorporated into cellular lipids, e.g. into phosphatidylcholine (PC). These are extracted and reacted with the fluorogenic dye 3-azido-7-hydroxycoumarin in the presence of copper(I). […] (a) Alkyne-Bodipy at concentrations as indicated was reacted with either 60 µM 3-azido-7-hydroxycoumarin and 2mM Cu(I)BF4 (+) or incubated in ethanol for 3h at 42°C (-). The samples were separated by TLC using hexane/ethyl acetate 1/1 as the mobile phase. […] (c) Plot of the integrated fluorescence intensity of lane 6 of panel b (left) and from the corresponding one second exposure before base treatment. […] The cholesterol ester of alkyne-oleate at the indicated concentrations was subjected to detection reaction, TLC separation and fluorescence imaging using the standard protocol. […] (b) Quantification of integrated fluorescence of panel a. […] Signals were quantified either by scraping, extraction and scintillation counting (panel b, ^3H-oleate) or by integration of signals form the fluorescence image (panel b, alkyne-oleate). […] Lipids extracts were dried and subjected to detection reaction, TLC separation and fluorescence imaging using the standard protocol. […] (b) Quantification of the signals in panel a. […]

[2] = tested on: HuH7 hepatoma cells; assay: Pulse chase labeling with alkyne fatty acids; type: cell-based
Procedure: Alkyne lipid precursors are supplemented to cell culture where they become incorporated into cellular lipids, e.g. into phosphatidylcholine (PC). These are extracted and reacted with the fluorogenic dye 3-azido-7-hydroxycoumarin in the presence of copper(I). […] (a) Alkyne-Bodipy at concentrations as indicated was reacted with either 60 µM 3-azido-7-hydroxycoumarin and 2mM Cu(I)BF4 (+) or incubated in ethanol for 3h at 42°C (-). The samples were separated by TLC using hexane/ethyl acetate 1/1 as the mobile phase. The dried TLC plate was first imaged with excitation at 485 nm and emission at >520 nm (left panel, Bodipy channel), followed by treatment with 4% Hünig's base in hexane and imaging with excitation at 420 nm and emission at 484-504 nm (right panel, Coumarin channel). (b, c) Influence of dye concentration and base treatment. A172 cells were grown in a 15 cm dish and labeled with 100 µM alkyne-palmitate/alkyne-oleate 1/1 for 2 h. Lipids were extracted and dissolved in 2 ml CHCl3. 2 µl of this extract were reacted with 2 mM Cu(I)BF4 and the indicated concentration of 3-azido-7-hydroxycoumarin in 37 µl ethanol/MeCN/CHCl3 24/6/7 at 42°C for 3 h. Samples were separated by TLC and imaged (b) before (right panel) and after (left panel) treatment with 4%-Hünig's base in hexane for the times indicated. (c) Plot of the integrated fluorescence intensity of lane 6 of panel b (left) and from the corresponding one second exposure before base treatment. […] The cholesterol ester of alkyne-oleate at the indicated concentrations was subjected to detection reaction, TLC separation and fluorescence imaging using the standard protocol. […] (b) Quantification of integrated fluorescence of panel a. […] Signals were quantified either by scraping, extraction and scintillation counting (panel b, ^3H-oleate) or by integration of signals form the fluorescence image (panel b, alkyne-oleate). […] Lipids extracts were dried and subjected to detection reaction, TLC separation and fluorescence imaging using the standard protocol. […] (b) Quantification of the signals in panel a. […]

[3] = tested on: Freshly isolated mouse hepatocytes; assay: Comparison of 3H-oleate and alkyne-oleate labeling (click/TLC fluorescence vs scintillation counting); type: cell-based
Procedure: as §1

[4] = tested on: Freshly isolated mouse hepatocytes; assay: Hepatocyte fatty acid metabolism, time course with alkyne or natural fatty acids; type: cell-based; conditions: 50 µM fatty acid, all labeling times; fluorescent click analysis
Procedure: as §1

[5] = tested on: A-172 cells; assay: Alkyne-sphinganine labeling of cultivated cells, click analysis; type: cell-based; conditions: cultivated 1 h with the compound
Procedure: as §1

| incorporation into PE [1] | amount of label in neutral lipids [3] | incorporation into TAG compared to PC [4] | Structure (SMILES) | fate of label after chase [2] | fate of label after chase ([2]; 3 min pulse, 30 min chase) | distribution of label after pulse ([2]; 3 min pulse, no chase) | labeling of cellular lipids [5] |
| --- | --- | --- | --- | --- | --- | --- | --- |
| large amounts | 49% | – | C#CCCCCCCC/C=C\CCCCCCCC(=O)O [alkyne-oleate, Nonadec-9-cis-en-18-ynoic acid] | metabolized to the final products PC, PE, TAG and CE | – | – | – |
| much less | – | equal distribution between PC and TAG | C#CCCCCCCCCCCCCCCC(=O)O [alkyne-palmitate, 16-Heptadecynoic acid] | – | metabolized to the final products PC, PE, TAG and CE | much of the fatty acids were found as the free substance, or in biosynthetic intermediates such as PA and DAG | – |
| – | – | – | C#CCCCCCCCCCCCCC[C@@H](O)[C@@H](N)CO [alkyne-sphinganine, (2S,3R)-2-Aminooctadec-17-yn-1,3-diol] | – | – | – | strong labeling of ceramide and other sphingolipids |
